Experimental findings from patent US7070965B1, “Small molecule anticancer compounds and related production process” (priority 1998, dated 2006) are described below.

The test system of data set [1] is human hepatocellular carcinoma LCI-D35. The data set is described as follows: Orthotopic nude mice model of human hepatocellular carcinoma LCI-D35. The class given is in vivo, athymic BALB/c nude mice. The method, then: 13-methyltetradecanoic acid (iso-C15) was chemically synthesized in the inventor's laboratory, as described in Example 5, infra, (purity of 99.8%), was prepared by dissolving in NaOH solution and then in 0.35% Tween 80 with pH7.5.
Total of 16 male and female athymic BALB/c nude mice between 4 and 5 weeks of age were bred and maintained in specific pathogen free condition.
Human hepatocellular carcinoma LCI-D35 was originally obtained from the primary tumor of a patient. The tumor was implanted and maintained subcutaneously in athymic nude mice. Prior to orthotopic implantation, the tumor was harvested in log phase. The peripheral tumor tissue was collected and minced to small pieces of one cubic millimeter each.
The mice were anesthetized for surgical orthotopic implantation. A small incision was made along the midline of the upper abdomen. The left lobe of the liver was exposed and a small incision was made on the liver surface. Two of the tumor fragments above were sutured into the incision using 8-0 suture. The abdomen was then closed using a 6-0 surgical suture.
The mice bearing orthotopic LCI-D35 were randomly divided into control and test groups of eight mice each at the second day after tumor implantation. The iso-C15 prepared above at dose 70 mg/kg and PBS were administered by gavage once a day in the test and control group, respectively, for 40 days.
All the mice were sacrificed by CO2 inhalation at day-40 after the start of treatment. The weights of primary tumors and bodies were measured. Tissue samples of the primary tumors were processed through standard procedures of hematoxylin and eosin staining for microscopic examination.
The tumor inhibition rates (TIR) were determined by comparing the mean tumor weight of the test groups (T) with that of the control group (C) and expressed as a (C)−T)/C percentage, and were analyzed by Student's test for statistical significance.

Data set [2] relates to normal human peripheral blood lymphocytes (PBL). The data set is described as follows: Cytotoxicity on normal cells, viability assessment. The class given is cell-based. As to conditions: at concentrations lethal to tumor cells. The method, then: PBLs, K-562 and SNU-1 cells in suspension culture were seeded in 96-well microplates at a density of 5×10^4 cells/well for K-562 and SNU-1, and 1×10^5 cells/well for PBLs. iso-C15 were diluted with medium to provide different concentrations (0, 1.5, 3.0, 6.0, 15.0, 30.0, and 60.0 μg/ml). Both untreated and solvent (NaOH and Tween 80) treated cells served as controls. After incubation for 48 hours at 37° C., cells were collected directly from the wells for viability assessment.
The ID50, ID75 and ID90 were determined in duplicate in every set of experiments, and each experiment was repeated three times under identical conditions. ID50, ID75 and ID90 were defined as the concentration of iso-C15 required to kill 50, 75 or 90%, respectively, of cells (compared with that in untreated cells) and computed using CalcuSyn for Windows software (Biosoft, Cambridge UK) based on Median Effect method by Dr. T. C. Chou.

In data set [3] the test system is K562 leukemia cells. The data set is described as follows: Apoptosis morphology, transmission electron microscope. In kind it is cell-based, human. As to conditions: 60 μg/ml, 4 hours. The method, then:
Human cancer cell lines DU-145 (prostate cancer), K562 (leukemia), HCT116 (colon cancer), H1688 (lung cancer), SUN423 (hepatocarcinoma), MCF7 (breast cancer), CRL-1687 (pancreatic cancer), and SUN-1 (gastric cancer) were obtained from American Type Culture Collection (ATCC). 30 ml blood was collected from a health person and normal peripheral mononuclear cells were separated by Ficoll separation solution (Sigma). All cells were maintained in RPMI 1640, DMEM, or McCoy medium supplemented with 10% FCS, […] streptomycin and 100 u/ml penicillin. Normal human peripheral mononuclear cells, K562 and SUN-1 were suspended cells. After spinning at 1,500 RPM for 5 min, supernatants were discharged and cells were resuspended and expended in fresh medium. The other tumor cell lines were adherent cells and were dispersed with 0.05% trypsin/0.01% EDTA (Irvine Scientific, CA) for expansion. Cells were seeded in T75 flasks at 2×10^6 cells/flask in culture medium supplemented with 10% fetal bovine serum and incubated overnight at 37° C. with 5% CO2. The adherent cells attached to the plate were striped with disposable cell scrapers (Fisher Scientific) after treated either with 1% iso-C15, anteiso-C15 or control solution for 1, 2, 4, 8 and 24 hours and then combined with respective float cells. […]

Each structure is given as a SMILES string.

Consider `CC(C)CCCCCCCCCCCC(=O)O` [iso-C15, 13-methyltetradecanoic acid], for which, in data set [1] (70 mg/kg oral), the “signs of toxicity (body weight curve, histology slides)” value was “no signs of toxicity”. In data set [1] (70 mg/kg oral, 40 days), the “TIR (tumor inhibition rate)” value was found to be 64.9% and the “tumor weight mean ± SD” value was determined as 0.071 ± 0.052 g. For the same molecule, in data set [1] (70 mg/kg, eight mice per group), the “mice in which the implanted tumor did not grow” value was “two”. Also, in data set [2], the “toxicity against normal human peripheral blood lymphocytes” value was “not toxic against normal human peripheral blood lymphocytes”. In data set [3], the “morphological changes indicative of apoptosis” value was “exhibits typical apoptotic feature”.
